# Reference: patent US11840686B2, “Modulation of prekallikrein (PKK) expression” (Ionis Pharmaceuticals, Inc., priority 2013, dated 2023)
# Strand notation (5' to 3'): a small letter for the sugar, then the base; units joined by * are phosphorothioate-linked, units joined directly phosphodiester-linked; [ ] holds rarer units or linkages, { } end groups; capitals alone tell only the bases. e = 2'-O-(2-methoxyethyl) (MOE); k = constrained ethyl (cEt); [5mC] = 5-methylcytosine; d = 2'-deoxy (DNA)
# Test system: human PKK mRNA
# Assay: Antisense inhibition of human PKK mRNA in HepaRG cells, 1,000 nM, MOE/deoxy/cEt oligonucleotides (Example 3)
# Type: cell-based
# Summary of the method: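 Readout is percent PKK mRNA reduction against untreated controls, by real-time PCR (RTS3454) adjusted for total RNA via RIBOGREEN. Oligonucleotides, phosphorothioate gapmers of 16 nucleosides with cEt, MOE and deoxy sugars, were delivered at 1,000 nM by electroporation to 20,000 HepaRG cells/well for roughly 24 h.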
# [1] = Table 19, HepaRG cells, electroporation with 1,000 nM antisense oligonucleotide, approximately 24 hours, PKK mRNA by RT-PCR (RTS3454), relative to untreated control cells
# [2] = Table 20, HepaRG cells, electroporation with 1,000 nM antisense oligonucleotide, approximately 24 hours, PKK mRNA by RT-PCR (RTS3454), relative to untreated control cells
# [3] = Table 22 experiment, HepaRG cells, electroporation with 1,000 nM antisense oligonucleotide, approx. 24 hours, PKK mRNA by RT-PCR (RTS3454), relative to untreated control cells
# [4] = PKK mRNA, HepaRG cells, 1,000 nM antisense oligonucleotide, Table 31
# [5] = HepaRG cells, electroporation with 1,000 nM antisense oligonucleotide, approximately 24 hours, primer probe set RTS3454, relative to untreated control cells, experiment of Table 23
# [6] = Table 28, HepaRG cells, 1,000 nM antisense oligonucleotide, human PKK mRNA
# [7] = Table 27, HepaRG cells, 1,000 nM antisense oligonucleotide, human PKK mRNA
# [8] = Table 30, human PKK mRNA, HepaRG cells, 1,000 nM antisense oligonucleotide
# [9] = HepaRG cells, 1,000 nM antisense oligonucleotide, Table 29
# [10] = Table 21 experiment, HepaRG cells, electroporation with 1,000 nM antisense oligonucleotide, approx. 24 hours, PKK mRNA by RT-PCR (RTS3454), relative to untreated control cells
# [11] = HepaRG cells, electroporation with 1,000 nM antisense oligonucleotide, approximately 24 hours, primer probe set RTS3454, relative to untreated control cells, experiment of Table 24
# [12] = HepaRG cells, electroporation with 1,000 nM antisense oligonucleotide, approx. 24 hours, PKK mRNA by RT-PCR (RTS3454), relative to untreated control cells, Table 26 experiment
# [13] = HepaRG cells, electroporation with 1,000 nM antisense oligonucleotide, approx. 24 hours, PKK mRNA by RT-PCR (RTS3454), relative to untreated control cells, Table 25 experiment
substance,measurement,setting,value
548082 (eA*eA*kG*d[5mC]*dA*dT*d[5mC]*dT*dT*dT*dT*d[5mC]*d[5mC]*k[5mC]*k[5mC]*e[5mC]; antisense) [compound 548082],% inhibition,[1],42%
547871 (antisense eG*e[5mC]*kT*dA*dA*d[5mC]*d[5mC]*dT*dT*dA*dG*dA*d[5mC]*kA*k[5mC]*eA) [compound 547871],% inhibition,[2],96%
same,% inhibition,[3],77%
548624 (antisense eT*e[5mC]*kT*dA*dG*dG*dG*d[5mC]*d[5mC]*dA*d[5mC]*dA*d[5mC]*k[5mC]*kT*e[5mC]) [compound 548624],% inhibition,[4],24%
547994 (antisense e[5mC]*e[5mC]*kA*dT*d[5mC]*d[5mC]*dA*dT*dA*dG*dA*dT*dA*kA*kT*e[5mC]) [compound 547994],% inhibition,[5],53%
548139 (eA*eG*kA*dT*dG*dA*dG*dG*dA*d[5mC]*d[5mC]*d[5mC]*d[5mC]*k[5mC]*k[5mC]*eA; antisense) [compound 548139],% inhibition,[1],56%
548510 (antisense eT*eT*kA*dG*d[5mC]*d[5mC]*dA*d[5mC]*dT*d[5mC]*d[5mC]*dT*d[5mC]*kT*kT*eG) [compound 548510],% inhibition,[6],30%
548312 (eA*eT*kT*dT*dG*dG*d[5mC]*d[5mC]*d[5mC]*dT*dG*dA*dG*k[5mC]*k[5mC]*e[5mC]; antisense) [compound 548312],% inhibition,[7],0%
548417 (antisense eA*e[5mC]*kT*dG*dT*d[5mC]*d[5mC]*dT*dA*dT*dA*dA*d[5mC]*kT*k[5mC]*eT) [compound 548417],% inhibition,[8],24%
548341 (antisense eT*eA*kG*dA*dA*d[5mC]*d[5mC]*dT*dT*d[5mC]*d[5mC]*dT*d[5mC]*k[5mC]*kA*e[5mC]) [compound 548341],% inhibition,[7],30%
547995 (antisense eG*eT*kG*dT*d[5mC]*d[5mC]*d[5mC]*dA*dT*dA*d[5mC]*dG*d[5mC]*kA*kA*eT) [compound 547995],% inhibition,[5],64%
548597 (eT*eG*kA*dA*dT*dA*d[5mC]*d[5mC]*dA*dT*d[5mC]*d[5mC]*d[5mC]*k[5mC]*kG*e[5mC]; antisense) [compound 548597],% inhibition,[9],50%
548564 (antisense eT*eT*kG*d[5mC]*dT*dA*d[5mC]*dT*dT*dT*dA*d[5mC]*dA*k[5mC]*k[5mC]*eA) [compound 548564],% inhibition,[9],69%
547839 (eG*e[5mC]*kT*dT*d[5mC]*dA*dA*dG*dG*dA*dA*dT*dG*kT*k[5mC]*e[5mC]; antisense) [compound 547839],% inhibition,[10],35%
548593 (e[5mC]*eA*kT*d[5mC]*d[5mC]*d[5mC]*dT*dG*dA*d[5mC]*dA*dG*dG*kT*k[5mC]*e[5mC]; antisense) [compound 548593],% inhibition,[9],61%
548026 (eG*eT*k[5mC]*d[5mC]*dT*dA*dT*dG*dA*dG*dT*dG*dA*k[5mC]*k[5mC]*e[5mC]; antisense) [compound 548026],% inhibition,[11],52%
548554 (antisense eG*eT*kG*d[5mC]*dT*dG*d[5mC]*dA*dT*dT*dG*d[5mC]*dA*kT*kG*eA) [compound 548554],% inhibition,[9],42%
548144 (eA*eT*kG*d[5mC]*d[5mC]*dA*d[5mC]*dT*d[5mC]*dT*d[5mC]*d[5mC]*dA*kT*kG*e[5mC]; antisense) [compound 548144],% inhibition,[1],52%
547788 (antisense eT*eA*kA*dG*dT*dT*dG*d[5mC]*dT*dT*dG*d[5mC]*dT*kT*kG*eA) [compound 547788],% inhibition,[10],49%
548377 (eG*eT*kG*dT*dG*d[5mC]*dT*dG*dA*dG*dG*dT*dT*kT*kG*e[5mC]; antisense) [compound 548377],% inhibition,[7],80%
548517 (antisense e[5mC]*eG*kG*dA*d[5mC]*dA*dA*dG*d[5mC]*d[5mC]*dT*dT*dA*k[5mC]*kA*eG) [compound 548517],% inhibition,[6],43%
548275 (antisense eG*eT*k[5mC]*d[5mC]*d[5mC]*dA*dA*dG*dA*d[5mC]*dA*dT*dT*k[5mC]*k[5mC]*eT) [compound 548275],% inhibition,[12],40%
548581 (eG*eG*kT*dG*dG*dG*dT*dT*dA*dT*d[5mC]*dT*dG*kA*kG*eA; antisense) [compound 548581],% inhibition,[9],13%
548450 (e[5mC]*eT*kA*d[5mC]*d[5mC]*dT*dA*dT*dA*dA*d[5mC]*dT*d[5mC]*kT*kA*eA; antisense) [compound 548450],% inhibition,[8],0%
547846 (antisense eT*e[5mC]*kG*dA*dT*dG*dG*d[5mC]*dA*dA*dG*d[5mC]*dA*k[5mC]*kT*eT) [compound 547846],% inhibition,[2],0%
same,% inhibition,[3],42%
548184 (eA*e[5mC]*kA*dG*dT*d[5mC]*dA*dT*dG*dG*dA*dG*dA*kT*k[5mC]*eT; antisense) [compound 548184],% inhibition,[13],73%
548058 (eG*e[5mC]*kA*dT*dA*dT*dT*dG*dG*dT*dT*dT*dT*kT*kG*eG; antisense) [compound 548058],% inhibition,[11],71%
547911 (eT*eG*kG*d[5mC]*dA*dA*d[5mC]*d[5mC]*dA*dA*dT*dT*dT*k[5mC]*kT*eG; antisense) [compound 547911],% inhibition,[2],0%
same,% inhibition,[3],15%
547988 (antisense eT*eG*kA*d[5mC]*dA*dG*d[5mC]*dG*dA*dA*dT*d[5mC]*dA*kT*k[5mC]*eT) [compound 547988],% inhibition,[5],56%
547999 (antisense e[5mC]*e[5mC]*kT*dT*dG*dT*dG*dT*d[5mC]*d[5mC]*d[5mC]*dA*dT*kA*k[5mC]*eG) [compound 547999],% inhibition,[11],50%
547800 (eA*e[5mC]*kA*dT*dG*dG*dA*dA*dG*d[5mC]*dT*dA*d[5mC]*kA*kT*e[5mC]; antisense) [compound 547800],% inhibition,[10],20%
547804 (eG*eT*kG*dT*dA*d[5mC]*dA*dT*dG*dG*dA*dA*dG*k[5mC]*kT*eA; antisense) [compound 547804],% inhibition,[10],22%
548129 (eT*eT*kT*dG*dA*d[5mC]*dT*dT*dG*dA*dA*d[5mC]*dT*k[5mC]*kA*eG; antisense) [compound 548129],% inhibition,[1],35%
548330 (antisense eG*eA*k[5mC]*dT*dA*dG*d[5mC]*dT*dT*d[5mC]*dT*dA*d[5mC]*kT*kA*e[5mC]) [compound 548330],% inhibition,[7],34%
548463 (eT*e[5mC]*kA*d[5mC]*dT*dG*dT*dA*d[5mC]*d[5mC]*dT*dA*dT*kA*kT*e[5mC]; antisense) [compound 548463],% inhibition,[6],0%
547845 (antisense e[5mC]*eG*kA*dT*dG*dG*d[5mC]*dA*dA*dG*d[5mC]*dA*d[5mC]*kT*kT*eA) [compound 547845],% inhibition,[2],0%
same,% inhibition,[3],64%
548582 (eT*eA*kG*d[5mC]*dT*d[5mC]*d[5mC]*dA*dT*dG*d[5mC]*dT*dG*kT*kG*eT; antisense) [compound 548582],% inhibition,[9],59%
548362 (antisense eG*eA*k[5mC]*dA*dA*d[5mC]*d[5mC]*d[5mC]*dA*dT*d[5mC]*dA*dG*kT*kT*eG) [compound 548362],% inhibition,[7],33%
548648 (antisense e[5mC]*eA*kG*dT*dT*dG*dT*dA*dT*d[5mC]*d[5mC]*d[5mC]*dT*k[5mC]*k[5mC]*e[5mC]) [compound 548648],% inhibition,[4],32%
548350 (antisense eG*e[5mC]*kG*d[5mC]*dT*dA*dA*d[5mC]*d[5mC]*dT*d[5mC]*dA*dT*kA*kA*eA) [compound 548350],% inhibition,[7],29%
547933 (eT*e[5mC]*kG*dA*dT*dT*dT*dT*d[5mC]*d[5mC]*dA*dT*dA*k[5mC]*kA*eT; antisense) [compound 547933],% inhibition,[5],44%
547932 (e[5mC]*eG*kA*dT*dT*dT*dT*d[5mC]*d[5mC]*dA*dT*dA*d[5mC]*kA*kT*eT; antisense) [compound 547932],% inhibition,[5],33%
548299 (e[5mC]*eA*kT*dT*dG*dT*dG*d[5mC]*dT*d[5mC]*dA*dA*d[5mC]*kT*kG*eA; antisense) [compound 548299],% inhibition,[12],35%
548533 (antisense eG*eA*kG*dG*dT*dG*dG*dT*dT*dG*dG*dA*dG*k[5mC]*kT*eA) [compound 548533],% inhibition,[6],9%
548214 (e[5mC]*eA*kG*dA*d[5mC]*dA*dG*d[5mC]*d[5mC]*d[5mC]*dA*d[5mC]*d[5mC]*kA*kA*e[5mC]; antisense) [compound 548214],% inhibition,[13],55%
548119 (antisense eT*eG*kG*dA*d[5mC]*dT*dG*d[5mC]*dT*dT*d[5mC]*dT*d[5mC]*kA*kT*eG) [compound 548119],% inhibition,[1],25%
548421 (antisense e[5mC]*eA*k[5mC]*dT*dG*dT*d[5mC]*d[5mC]*dT*dA*dT*dA*dT*k[5mC]*kA*e[5mC]) [compound 548421],% inhibition,[8],56%
